From patent US20230286946A1, “DIFLUOROMETHYL-PYRIDIN-2-YL TRIAZOLES” (Boehringer Ingelheim International GmbH, priority 2020, published 2023)

Columns and labels:
human MDR1 P-gp = assay: Assessment of efflux in MDCK cells transfected with the human MDR1 gene; type: in vitro ADME, canine; conditions: dog, pH 7.4, 37° C.; for Papp A→B: apical-to-basal, read-out: MDCK-PGP A-B; for efflux ratio: read-out: MDCK-PGP Efflux ratio [PEBA/PEAB]
Experimental: Assessment of efflux in Madin-Darby canine kidney (MDCK) cells transfected with the human MDR1 gene to assess brain penetration (Drug Metabolism and Disposition February 2008, 36 (2) 268-275; DOI: https://doi.org/10.1124/dmd.107.017434)
Apparent permeability coefficients (PE) of the compounds across the MDCK-MDR1 cell monolayers are measured (pH 7.4, 37° C.) in apical-to-basal (AB) and basal-to-apical (BA) transport direction. AB permeability (PEAB) represents drug absorption from the blood into the 35 brain and BA permeability (PEBA) drug efflux from the brain back into the blood via both passive permeability as well as active transport mechanisms mediated by efflux and uptake transporters that are expressed on the MDCK-MDR1 cells, predominantly by the overexpressed human MDR1 P-gp. The compounds are assigned to permeability/absorption classes by comparison of the AB permeabilities with the AB permeabilities of reference compounds with known in vitro permeability and oral absorption in the human. Identical or similar permeabilities in both transport directions indicate passive permeation, vectorial permeability points to additional active transport mechanisms. Higher PEBA than PEAB indicates the involvement of active efflux mediated by MDR1 P-gp. Active transport is concentration-dependently saturable.
MDCK-MDR1 cells (1-2×10e5 cells/1 cm2 area) are seeded on filter inserts (Costar transwell polycarbonate or PET filters, 0.4 μm pore size) and cultured (DMEM) for 7 days. Subsequently, the MDR1 expression is boosted by culturing the cells with 5 mM sodium butyrate in full medium for 2 days. Compounds are dissolved in appropriate solvent (like DMSO, 1-20 mM stock solutions). Stock solutions are diluted with HTP-4 buffer (128.13 mM NaCl, 5.36 mM KCl, 1 mM MgSO4, 1.8 mM CaCl2, 4.17 mM NaHCO3, 1.19 mM Na2HPO4×7H2O, 0.41 mM NaH2PO4×H2O, 15 mM HEPES, 20 mM glucose, 0.25% BSA, pH 7.4) to prepare the transport solutions (0.1-300 μM compound, final DMSO <=0.5%). The transport solution (TL) is applied to the apical or basolateral donor side for measuring A-B or B-A permeability (3 filter replicates), respectively. The receiver side contains the same buffer as the donor side. Samples are collected at the start and end of experiment from the donor and at various time intervals for up to 2 hours also from the receiver side for concentration measurement by HPLC-MS/MS or scintillation counting. Sampled receiver volumes are replaced with fresh receiver solution.

α5ß2 γ2 GABAA Receptor = target: T1, α5ß2 γ2 GABAA Receptor (Homo sapiens, UniProt P18507+P31644); assay: Assay B: in vitro evaluation of modulation of α5ß2γ2 GABAA receptor, two-electrode voltage clamp in oocytes; type: cell-based; conditions: for EC50: co-application with 0.5 μM GABA, oocytes, read-out: Assay B: GABAA α 5 β 3 γ 2 EC50
T1 sequence (P31644 32-462): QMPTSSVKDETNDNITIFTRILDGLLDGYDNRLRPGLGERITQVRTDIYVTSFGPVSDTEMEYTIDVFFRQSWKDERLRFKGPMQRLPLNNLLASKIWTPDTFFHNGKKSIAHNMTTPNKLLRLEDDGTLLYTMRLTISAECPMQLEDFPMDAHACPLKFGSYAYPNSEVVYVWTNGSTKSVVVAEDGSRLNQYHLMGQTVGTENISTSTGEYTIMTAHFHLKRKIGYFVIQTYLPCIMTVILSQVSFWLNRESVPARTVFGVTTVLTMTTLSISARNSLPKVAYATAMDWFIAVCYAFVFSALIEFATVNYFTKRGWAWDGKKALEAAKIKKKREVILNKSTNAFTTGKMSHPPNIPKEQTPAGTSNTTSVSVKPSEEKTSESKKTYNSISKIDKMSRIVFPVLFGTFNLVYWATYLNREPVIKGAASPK
T1 sequence (P18507 40-376 limits assumed): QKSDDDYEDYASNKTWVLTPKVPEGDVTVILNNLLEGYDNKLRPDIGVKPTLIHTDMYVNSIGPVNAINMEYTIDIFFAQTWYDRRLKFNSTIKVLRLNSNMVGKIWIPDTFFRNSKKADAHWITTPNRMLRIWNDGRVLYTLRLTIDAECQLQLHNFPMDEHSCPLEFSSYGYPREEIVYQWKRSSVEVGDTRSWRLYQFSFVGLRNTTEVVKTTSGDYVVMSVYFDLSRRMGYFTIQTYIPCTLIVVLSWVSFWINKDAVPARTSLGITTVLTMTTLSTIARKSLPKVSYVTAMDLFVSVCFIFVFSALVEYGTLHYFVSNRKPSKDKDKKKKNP
Experimental: Assay B: In Vitro Evaluation of Modulation of α5ß2 γ2 GABAA Receptor.
Modulatory efficacy of compounds of formular (I) is determined electrophysiological recordings in oocytes using the two-electrode voltage clamp (TEVC) technique. Oocytes are injected with cRNA for human GABAA receptor subunits α5, ß2 and γ2 in a 3:1:3 ratio and modulatory efficacy is evaluated by co-applications with a submaximal EC5-20 GABA concentration (0.5 μM) termed GABA control. As a standard, the compounds are tested in five concentrations (3.16, 0.316, 0.0316, 0.00316 and 0.000316 μM) on each oocyte starting with the lowest concentration. Background subtracted peak current amplitudes are normalized to the respective GABAcontrol current, converted to % change and depicted +/−S.E.M. as a function of increasing compound concentrations. Plotted datapoints are fitted to the empirical Hill equation using non-linear regression. 95% confidence intervals for maximal efficacy (Bottom) and potency (Log EC50) are derived from this fitting routine.

| Papp A→B (human MDR1 P-gp) [×10⁻⁶ cm/s] | efflux ratio (human MDR1 P-gp) | Assay B: GABAA α 5 β 3 γ 2 Emax vs GABA (α5ß2 γ2 GABAA Receptor) [%] | EC50 (α5ß2 γ2 GABAA Receptor) [µM] | SMILES |
| --- | --- | --- | --- | --- |
| 40 | 1.1 | -14.9 | 0.0269 | CCn1cc(-c2ccc(OCc3c(-c4ccc(C(F)F)cn4)nnn3C)nn2)cn1 [Example 22] |
| 10 | 6.6 | -14.7 | 0.0098 | Cn1nnc(-c2ccc(C(F)F)cn2)c1COc1ccc(-c2cn[nH]c2)nn1 [Example 24] |
| 3 | 17.2 | -20 | 0.0146 | Cn1nnc(-c2ccc(C(F)F)cn2)c1COc1ccc(-c2cccc(C(N)=O)c2)nn1 [Example 28] |
| 59 | 0.4 | -25.3 | 0.0373 | Cc1nnn(-c2ccc(C(F)F)cn2)c1COc1ccc(-n2cc(C#N)cn2)nn1 [Example 37] |
| 86 | 0.5 | -22.5 | 0.0228 | Cc1nnn(-c2ccc(C(F)F)cn2)c1COc1ccc(-n2ncnc2C)nn1 [Example 38] |
| 59 | 0.6 | -24.6 | 0.354 | Cn1nnc(-c2ccc(C(F)F)cn2)c1COc1ccc(-c2cnccn2)nn1 [Example 39] |
| 24 | 1.4 | -25 | 0.0158 | Cc1nnn(-c2ccc(C(F)F)cn2)c1COc1ccc(-n2cnc(C#N)c2)nn1 [Example 42, 1-[6-({1-[5-(difluoromethyl)pyridin-2-yl]-4-methyl-1H-1,2,3-triazol-5-yl}methoxy)pyridazin-3-yl]-1H-imidazole-4-carbonitrile] |
| 54 | 0.7 | -20.2 | 0.0248 | Cc1nnn(-c2ccc(C(F)F)cn2)c1COc1ccc(-n2nccn2)nn1 [Example 43] |
| 69 | 0.8 | -13.2 | 0.0789 | Cc1ncnn1-c1ccc(OCc2c(-c3ccc(C(F)F)cn3)nnn2C)nn1 [Example 48, 3-({4-[5-(difluoromethyl)pyridin-2-yl]-1-methyl-1H-1,2,3-triazol-5-yl}methoxy)-6-(5-methyl-1H-1,2,4-triazol-1-yl)pyridazine] |
| 18 | 2.7 | -16 | 0.002 | Cn1nnc(-c2ccc(C(F)F)cn2)c1COc1ccc(-n2cnc(C#N)c2)nn1 [Example 52] |
| 58 | 0.6 | -17.7 | 0.0145 | Cc1nnn(-c2ccc(C(F)F)cn2)c1COc1ccc(-c2cnccn2)nn1 [Example 56, 3-({1-[5-(difluoromethyl)pyridin-2-yl]-4-methyl-1H-1,2,3-triazol-5-yl}methoxy)-6-(pyrazin-2-yl)pyridazine] |

More lines, now with the values behind:

| SMILES | Papp A→B (human MDR1 P-gp) [×10⁻⁶ cm/s] | efflux ratio (human MDR1 P-gp) | Assay B: GABAA α 5 β 3 γ 2 Emax vs GABA (α5ß2 γ2 GABAA Receptor) [%] | EC50 (α5ß2 γ2 GABAA Receptor) [µM] |
| --- | --- | --- | --- | --- |
| Cc1nnn(-c2ccc(C(F)F)cn2)c1COc1ccc(-c2ccc(=O)n(C)c2)nn1 [Example 1, 5-[6-({1-[5-(difluoromethyl)pyridin-2-yl]-4-methyl-1H-1,2,3-triazol-5-yl}methoxy)pyridazin-3-yl]-1-methyl-1,2-dihydropyridin-2-one] | 31 | 1.8 | -24.9 | 0.0413 |
| Cc1nnn(-c2ccc(C(F)F)cn2)c1COc1ccc(-c2cnc(N)nc2)nn1 [Example 2] | 34 | 1.9 | -25.3 | 0.0925 |
| Cc1cc(-c2ccc(OCc3c(C)nnn3-c3ccc(C(F)F)cn3)nn2)cnn1 [Example 3] | 41 | 1.4 | -24.7 | 0.0066 |
| Cc1nnn(-c2ccc(C(F)F)cn2)c1COc1ccc(-c2cn[nH]c2)nn1 [Example 4] | 57 | 0.8 | -22.3 | 0.093 |
| Cc1nnn(-c2ccc(C(F)F)cn2)c1COc1ccc(-c2ccc(C#N)s2)nn1 [Example 12] | 51 | 0.3 | -12.3 | 0.147 |
| CNc1cccc(-c2ccc(OCc3c(C)nnn3-c3ccc(C(F)F)cn3)nn2)n1 [Example 14] | 55 | 0.7 | -21 | 0.089 |
| Cc1n[nH]c(C)c1-c1ccc(OCc2c(C)nnn2-c2ccc(C(F)F)cn2)nn1 [Example 15] | 17 | 3.5 | -24.7 | 0.0347 |
| Cc1nnn(-c2ccc(C(F)F)cn2)c1COc1ccc(-c2ccc(S(C)(=O)=O)nc2)nn1 [Example 16] | 59 | 0.6 | -20.3 | 0.0859 |
| Cc1nnn(-c2ccc(C(F)F)cn2)c1COc1ccc(-c2ccnnc2)nn1 [Example 17] | 51 | 1 | -33.2 | 0.001 |
| Cc1ncc(-c2ccc(OCc3c(C)nnn3-c3ccc(C(F)F)cn3)nn2)o1 [Example 18] | 71 | 0.6 | -28.7 | 0.0233 |
| Cc1nnn(-c2ccc(C(F)F)cn2)c1COc1ccc(-c2ccc(N)nc2)nn1 [Example 19] | 41 | 1.2 | -28.5 | 0.064 |
| Cc1nnn(-c2ccc(C(F)F)cn2)c1COc1ccc(-c2c[nH]c(=O)c(F)c2)nn1 [Example 20] | 15 | 2 | -32.3 | 0.0116 |
